Data published in patent US20010044445A1, “AZOLE INHIBITORS OF CYTOKINE PRODUCTION” (priority 1999, published 2001).

Legend:
[1] = system: Human peripheral blood mononuclear cells; experiment: Human Concanavalin-A Proliferation Assay (Con HU Assay); format: cell-based; conditions: Homo sapiens, PBMC, concanavalin-A stimulated human PBMC; for inhibition at 100 µM / inhibition at 10 µM / inhibition at 1 µM: 72 h, 3 days, read-out: % Inhibition of proliferation (at concentrations of 1,10, or 100 μm); for inhibition at 100 µM: concentration 100 μm (in parentheses in the cell); for IC50: tritiated thymidine; for inhibition at 10 µM: concentration 10 μm (in parentheses in the cell); for inhibition at 1 µM: concentration 1 μm (in parentheses in the cell)
Method in brief: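 Proliferation read as tritiated thymidine uptake (0.5 μCi/well, 6 h pulse on day 3) in human PBMC cultured 3 days with 2.5 μg/ml (final) concanavalin-A. Cells, 50,000 per well in supplemented RPMI 1640 with 10% FBS, received compound 15 min before mitogen.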

SMILES | inhibition at 100 µM [1] | IC50 [1] | melting point | inhibition at 10 µM [1] | inhibition at 1 µM [1]
O=C(Nc1ccc(-n2nc(C(F)(F)F)cc2C(F)(F)F)cc1)c1ccoc1 [Example 14, N-[4-[3,5-bis(trifluoromethyl)-1H-pyrazol-1-yl]phenyl]-3-furancarboxamide] | 97% | 538 nM | 206 to 207 °C |  | 
O=C(Nc1ccc(-n2nc(C(F)(F)F)cc2C(F)(F)F)cc1)c1ccc(I)cc1 [Example 69, N-[4-[3,5-bis(trifluoromethyl)-1H-pyrazol-1-yl]phenyl]-4-iodobenzamide] | 98% | 506 nM | 196 to 198 °C |  | 
Cn1ncc(C(=O)Nc2ccc(-n3nc(C(F)(F)F)cc3C(F)(F)F)cc2)c1[N+](=O)[O-] [Example 83, N-[4-[3,5-bis(trifluoromethyl)-1H-pyrazol-1-yl]phenyl]-1-methyl-5-nitro-1H-pyrazole-4-carboxamide] |  | 71 nM | 214 to 216 °C | 99% | 
O=C(Nc1ccc(-n2nc(C(F)(F)F)cc2C(F)(F)F)cc1)c1cccnc1 [Example 106, N-[4-[3,5-bis(trifluoromethyl)-1H-pyrazol-1-yl]phenyl]-3-pyridinecarboxamide] |  | 237 nM | 185 to 188 °C | 100% | 
O=C(Nc1ccc(-n2nc(C(F)(F)F)cc2C(F)(F)F)cc1)C1CCOC1 (stereo not shown) [Example 243, N-[4-[3,5-bis(trifluoromethyl)-1H-pyrazol-1-yl]phenyl]tetrahydro-3-furancarboxamide] |  | 390 nM | 193 to 194 °C | 99% | 
O=C(Nc1ccc(-n2nc(C(F)(F)F)cc2OC(F)F)cc1)c1cccc(F)c1F [Example 354, N-(4-(5-(difluoromethoxy)-3-(trifluoromethyl)-1H-pyrazol-1-yl)phenyl)-2,3-difluorobenzamide] |  | 75 nM | 154 to 155 °C |  | 
COc1cccc(O)c1C(=O)Nc1ccc(-n2nc(C(F)(F)F)cc2C(F)(F)F)cc1 [Example 182, N-[4-[3,5-bis(trifluoromethyl)-1H-pyrazol-1-yl]phenyl]-2-hydroxy-6-methoxybenzamide] |  | 4670 nM | 114 to 116 °C | 83% | 
CC(C)(C)OC(=O)N1CSCC1C(=O)Nc1ccc(-n2nc(C(F)(F)F)cc2C(F)(F)F)cc1 (stereo not shown) [Example 258, 1,1-Dimethylethyl 4-[[[4-[3,5-bis(trifluoromethyl)-1H-pyrazol-1-yl]phenyl]amino]carbonyl]-3-thiazolidinecarboxylate] |  |  | 82 to 84 °C |  | 16%
O=C(Cc1cc2ccccc2[nH]1)Nc1ccc(-n2nc(C(F)(F)F)cc2C(F)(F)F)cc1 [Example 170, N-[4-[3,5-bis(trifluoromethyl)-1H-pyrazol-1-yl]phenyl]-1H-indole-2-acetamide] |  |  | 176 to 178 °C |  | 25%
C=C(C)C(=O)Nc1ccc(-n2nc(C(F)(F)F)cc2C(F)(F)F)cc1 [Example 295, N-(4-(3,5-bis(trifluoromethyl)-1H-pyrazol-1-yl)phenyl)-2-methylacrylamide] |  | 232 nM | 160 to 162 °C |  | 
CCC(NC(=O)OCc1ccccc1)C(=O)Nc1ccc(-n2nc(C(F)(F)F)cc2C(F)(F)F)cc1 (stereo not shown) [Example 28, phenylmethyl [1-[[[4-[3,5-bis(trifluoromethyl)-1H-pyrazol-1-yl]phenyl]amino]carbonyl]propyl]carbamate] |  |  | 158 to 160 °C |  | 12%
O=C(Nc1ccc(-n2nc(C(F)(F)F)cc2C(F)(F)F)cc1)C1CC1c1ccccc1 (stereo not shown) [Example 68, N-[4-[3,5-bis(trifluoromethyl)-1H-pyrazol-1-yl]phenyl]-2-phenylcyclopropanecarboxamide] | 99% | 2440 nM | 176 to 178 °C |  | 
O=C(Nc1ccc(-n2nc(C(F)(F)F)cc2C(F)(F)F)cc1)c1cccc([N+](=O)[O-])c1 [Example 140, N-[4-[3,5-bis(trifluoromethyl)-1H-pyrazol-1-yl]phenyl]-3-nitrobenzamide] | 100% | 298 nM | 203 to 204 °C |  | 
O=C(Nc1ccncc1)c1ccc(-n2nc(C(F)(F)F)cc2C(F)(F)F)cc1 [Example 194, 4-[3,5-Bis(trifluoromethyl)-1H-pyrazol-1-yl]-N-(4-pyridinyl)benzamide] |  |  | 234 to 235 °C |  | 23%
COc1ccc(C(=O)Nc2ccc(-n3nc(C(F)(F)F)cc3C(F)(F)F)cc2)cc1Br [Example 221, N-[4-[3,5-bis(trifluoromethyl)-1H-pyrazol-1-yl]phenyl]-3-bromo-4-methoxybenzamide] |  | 411 nM | 197 to 198 °C | 98% | 
O=C(O)c1ccc(C(=O)Nc2ccc(-n3nc(C(F)(F)F)cc3C(F)(F)F)cc2)cc1 [Example 157, 4-[[[4-[3,5-bis(trifluoromethyl)-1H-pyrazol-1-yl]phenyl]amino]carbonyl]benzoic acid] |  | 6760 nM | 282 to 283 °C | 42% | 
O=C(Nc1ccc(-n2nc(C(F)(F)F)cc2C(F)(F)F)cc1)c1cc2ccccc2o1 [Example 19, N-[4-[3,5-bis(trifluoromethyl)-1H-pyrazol-1-yl]phenyl]-2-benzofurancarboxamide] |  |  | 213 to 215 °C |  | 9%
O=C(Nc1ccc(-n2nc(C(F)(F)F)cc2C(F)(F)F)cc1)c1cc(F)ccc1F [Example 211, N-[4-[3,5-bis(trifluoromethyl)-1H-pyrazol-1-yl]phenyl]-2,5-difluorobenzamide] |  | 39 nM | 168 to 169 °C | 98% | 
O=C(Nc1ccc(-n2nc(C(F)(F)F)nc2Cl)cc1)c1ccncc1F [Example 336, N-(4-(5-chloro-3-(trifluoromethyl)-1H-1,2,4-triazol-1-yl)phenyl)-3-fluoroisonicotinamide] |  | 1830 nM | 167 to 170 °C |  | 
N#Cc1cc(C(F)(F)F)nn1-c1ccc(NC(=O)c2ccncc2F)cc1 [Example 304, N-(4-(5-cyano-3-(trifluoromethyl)-1H-pyrazol-1-yl)phenyl)-3-fluoroisonicotinamide] |  | 266 nM | 161 to 162 °C |  | 
O=C(Nc1ccccc1Cl)c1ccc(-n2nc(C(F)(F)F)cc2C(F)(F)F)cc1 [Example 185, 4-[3,5-Bis(trifluoromethyl)-1H-pyrazol-1-yl]-N-(2-chlorophenyl)benzamide] |  |  | 162 to 164 °C |  | 26%
Cc1ccccc1C(=O)Nc1ccc(-n2nc(C(F)(F)F)cc2C(F)(F)F)cc1 [Example 96, N-[4-[3,5-bis(trifluoromethyl)-1H-pyrazol-1-yl]phenyl]-2-methylbenzamide] | 99% | 338 nM | 165 to 167 °C |  | 
N#Cc1cc(C(F)(F)F)nn1-c1ccc(NC(=O)c2ccncc2Cl)cc1 [Example 351, 3-chloro-N-(4-(5-cyano-3-(trifluoromethyl)-1H-pyrazol-1-yl)phenyl)isonicotinamide] |  | 309 nM | 221 to 222 °C |  | 
O=C(Nc1ccc(-n2nc(C(F)(F)F)cc2C(F)(F)F)cc1)C1CCNCC1 [Example 125, N-[4-[3,5-bis(trifluoromethyl)-1H-pyrazol-1-yl]phenyl]-4-piperidinecarboxamide] |  |  | 156 to 159 °C |  | 6%
O=C(/C=C/c1cccs1)Nc1ccc(-n2nc(C(F)(F)F)cc2C(F)(F)F)cc1 [Example 171, (E)-N-[4-[3,5-bis(trifluoromethyl)-1H-pyrazol-1-yl]phenyl]-3-(2-thienyl)-2-propenamide] |  |  | 216 to 218 °C |  | 12%
O=C(Nc1ccc(-n2nc(C(F)(F)F)cc2C(F)(F)F)cc1)c1cccnc1F [Example 164, N-[4-[3,5-bis(trifluoromethyl)-1H-pyrazol-1-yl]phenyl]-2-fluoro-3-pyridinecarboxamide] |  | 39 nM | 110 to 112 °C | 99% | 
O=C(Nc1ccc(-n2nc(C(F)(F)F)cc2C(F)(F)F)cc1)c1ccc(Cl)nc1 [Example 249, N-[4-[3,5-bis(trifluoromethyl)-1H-pyrazol-1-yl]phenyl]-6-chloro-3-pyridinecarboxamide] |  | 182 nM | 192 to 194 °C | 100% | 
CSc1cc(C(F)(F)F)nn1-c1ccc(NC(=O)c2ccncc2F)cc1 [Example 320, 3-fluoro-N-(4-(5-(methylsulfanyl)-3-(trifluoromethyl)-1H-pyrazol-1-yl)phenyl)isonicotinamide] |  | 43 nM | 142 to 143 °C |  | 
O=C(Nc1ccc(-n2nc(C(F)(F)F)cc2C(F)(F)F)cc1)c1ccccc1[N+](=O)[O-] [Example 136, N-[4-[3,5-bis(trifluoromethyl)-1H-pyrazol-1-yl]phenyl]-2-nitrobenzamide] | 99% | 222 nM | 174 to 176 °C |  | 
O=C(Nc1ccc(-n2nc(C(F)(F)F)cc2C(F)(F)F)cc1)c1c(F)cccc1C(F)(F)F [Example 213, N-[4-[3,5-bis(trifluoromethyl)-1H-pyrazol-1-yl]phenyl]-2-fluoro-6-(trifluoromethyl)benzamide] |  | 434 nM | 175 to 176 °C | 100% | 
